Experimental data reported in US11168086B2, “Methods of synthesizing pyrazine compounds” (Hoffmann-La Roche Inc., priority 2015, dated 2021).

Test system: HBV
Assay: HBV inhibition assay: anti-HBV activity in vitro in HepG2.2.15 cells (extracellular HBV DNA by qPCR)
Type: cell-based
Conditions: Hepatitis B virus, 120 h, five days after compound treatment, extracellular HBV DNA in culture supernatant by qPCR, concentration at which HBV replication is inhibited by 50%
Summary of the method: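 HepG2.2.15 cells (stably carrying HBV genome) treated with half-log serially diluted compounds at 0.5% DMSO final for five days. Extracellular HBV DNA in supernatant quantified by qPCR after Proteinase K digestion; EC50 is concentration giving 50% inhibition of replication.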

In order of falling EC50:
1. C[C@H]1Cn2ncc(N3CC4(CC3=O)CN(C(=O)c3ncco3)C4)c2CN1C(=O)Nc1cc(F)c(F)c(F)c1 [Example 336, (6S)-6-methyl-3-[2-(oxazole-2-carbonyl)-7-oxo-2,6-diazaspiro[3.4]octan-6-yl]-N-(3,4,5-trifluorophenyl)-6,7-dihydro-4H-pyrazolo[1,5-a]pyrazine-5-carboxamide]  66 nM
2. CC1CN(c2cnn3c2CN(C(=O)Nc2ccc(F)c(Cl)c2)[C@@H](C)C3)C(=O)N1 (stereo partly drawn) [Example 326, (6S)—N-(3-chloro-4-fluoro-phenyl)-6-methyl-3-(4-methyl-2-oxo-imidazolidin-1-yl)-6,7-dihydro-4H-pyrazolo[1,5-a]pyrazine-5-carboxamide]  46 nM
3. COC(=O)N1CC2(CC(=O)N(c3cnn4c3CN(C(=O)Nc3cc(F)c(F)c(F)c3)[C@@H](C)C4)C2)C1 [Example 333, methyl 6-[(6S)-6-methyl-5-[(3,4,5-trifluorophenyl)carbamoyl]-6,7-dihydro-4H-pyrazolo[1,5-a]pyrazin-3-yl]-7-oxo-2,6-diazaspiro[3.4]octane-2-carboxylate]  46 nM
4. C[C@H]1Cn2ncc(-n3cc(CO)cn3)c2CN1C(=O)Nc1cc(F)c(F)c(F)c1 [Example 342, (6S)-3-[4-(hydroxymethyl)pyrazol-1-yl]-6-methyl-N-(3,4,5-trifluorophenyl)-6,7-dihydro-4H-pyrazolo[1,5-a]pyrazine-5-carboxamide]  41 nM
5. C[C@H]1Cn2ncc(-c3ncc(F)cn3)c2CN1C(=O)Nc1cc(F)c(F)c(F)c1 [Example 341, (6S)-3-(5-fluoropyrimidin-2-yl)-6-methyl-N-(3,4,5-trifluorophenyl)-6,7-dihydro-4H-pyrazolo[1,5-a]pyrazine-5-carboxamide]  40 nM
6. CCOC(=O)N1CC2(CC(=O)N(c3cnn4c3CN(C(=O)Nc3cc(F)c(F)c(F)c3)[C@@H](C)C4)C2)C1 [Example 334, ethyl 6-[(6S)-6-methyl-5-[(3,4,5-trifluorophenyl)carbamoyl]-6,7-dihydro-4H-pyrazolo[1,5-a]pyrazin-3-yl]-7-oxo-2,6-diazaspiro[3.4]octane-2-carboxylate]  22 nM
7. C[C@H]1Cn2ncc(N3CC4(CC3=O)CN(c3ncccn3)C4)c2CN1C(=O)Nc1cc(F)c(F)c(F)c1 [Example 337, (6S)-6-methyl-3-(7-oxo-2-pyrimidin-2-yl-2,6-diazaspiro[3.4]octan-6-yl)-N-(3,4,5-trifluorophenyl)-6,7-dihydro-4H-pyrazolo[1,5-a]pyrazine-5-carboxamide]  15 nM
8. C[C@H]1Cn2ncc(N3C(=O)Cc4ccccc43)c2CN1C(=O)Nc1cc(F)c(F)c(F)c1 [Example 338, (6S)-6-methyl-3-(2-oxoindolin-1-yl)-N-(3,4,5-trifluorophenyl)-6,7-dihydro-4H-pyrazolo[1,5-a]pyrazine-5-carboxamide]  14 nM
9. C[C@H]1Cn2ncc(N3CC4(CC4)OC3=O)c2CN1C(=O)Nc1cc(F)c(F)c(F)c1 [Example 331, (6S)-6-methyl-3-(5-oxo-4-oxa-6-azaspiro[2.4]heptan-6-yl)-N-(3,4,5-trifluorophenyl)-6,7-dihydro-4H-pyrazolo[1,5-a]pyrazine-5-carboxamide]  12 nM
10. C[C@H]1Cn2ncc(N3CC4(CCC4)OC3=O)c2CN1C(=O)Nc1cc(F)c(F)c(F)c1 [Example 332, (6S)-6-methyl-3-(6-oxo-5-oxa-7-azaspiro[3.4]octan-7-yl)-N-(3,4,5-trifluorophenyl)-6,7-dihydro-4H-pyrazolo[1,5-a]pyrazine-5-carboxamide]  11 nM
11. C[C@H]1Cn2ncc(N3CC(c4ccccc4)NC3=O)c2CN1C(=O)Nc1cc(F)c(F)c(F)c1 (stereo partly drawn) [Example 329, (6S)-6-methyl-3-(2-oxo-4-phenyl-imidazolidin-1-yl)-N-(3,4,5-trifluorophenyl)-6,7-dihydro-4H-pyrazolo[1,5-a]pyrazine-5-carboxamide]  4 nM
